# Measured values as given in US8541464B2, “Treatment of atrial fibrillation” (HUYA Biosciences International LLC, priority 2009, dated 2013).
# Values joined by “and” are separate entries in the source; they are usually repeats but may differ in a detail not shown here. Equal entries are not always repeated.
# Key:
# [1] = system: conscious beagle dogs; experiment: Hemodynamics and plasma histamine in conscious beagle dogs, 10 minute infusions of increasing doses; type: in vivo, beagle dog; conditions: for Heart rate / Histamine Concentration / Mean blood pressure: 10 minute infusion
# Method: The effect of sulcardine sulfate intravenously administered over a 10 minute infusion on the mean blood pressure, heart rate, and plasma histamine concentration of conscious beagle dogs was performed. Three male and female purpose-bred beagles, weighing 10.0-12.7 Kg were intravenously administered repeated increasing doses of sulcardine sulfate (cumulative dose 1-44 mg/kg) at 15 minute intervals following a 10 minute infusion of the prior dose. The administered doses were as follows: 1 mg/kg, 3 mg/kg, 10 mg/kg, and 30 mg/kg sulcardine sulfate. Heart rate, mean arterial blood pressure, and histamine concentrations were measured (Table 3) at 10 minute intervals after completion of each drug infusion period.
# [2] = Plasma PK in Beagle dog after oral and IV administration; type: in vivo; parameters: AUC / CLs / Tmax / V/F (c): unit not given here; Cmax: unit: μg/mL
# [3] = system: post-MI beagle dogs; experiment: Hemodynamic effects in anesthetized post-MI sudden cardiac death model; type: in vivo, beagle dog; conditions: 15 mg/kg
# Method: A hemodynamic effects study of sulcardine sulfate in an anesthetized post-MI sudden cardiac death model study was also performed. The study population consisted of ten purpose-bred, female beagle dogs, weighing 10.0-12.0 Kg. The animals had left ventricular wall ischemic injury induced by a 90-minute occlusion of the left anterior descending coronary artery followed by reperfusion. Five animals were treated with sulcardine sulfate (15 mg/kg) infused intravenously over 10 minutes, and the remaining five animals were vehicle dogs treated with 0.9% sodium chloride solution (placebo). Lowest mean arterial blood pressure was measured every 15 minutes for a total period of 120 minutes after treatment.
# [4] = system: anesthetized dogs; experiment: Cardiovascular safety in anesthetized dogs, escalating 15-minute IV infusions (hemodynamics, histamine, ECG); type: in vivo, dog
# Method: (§1) Dogs were administered morphine (2 mg/kg subcutaneously) approximately 10-19 minutes prior to administration of anesthesia. Dogs were anesthetized with 1% α-chloralose (100 mg/kg intravenous), followed by a constant infusion of α-chloralose (35-75 mg/kg/hr, IV). Two healthy female dogs were administered escalating doses of sulcardine sulfate intravenously over 15 minutes in an acetate buffer system at dose levels of 10, 30 and 90-mg/kg with dose administrations separated by 60 minutes. Following drug administration, dogs were evaluated for ventricular, pulmonary and peripheral hemodynamic changes using Swanz Ganz and femoral catheters as well as by monitoring of blood oxygen saturation, test article blood level, body temperature, blood biochemistries, hematologies, ECG, and histamine.
# as §1, with “90 mg/kg” for “90-mg/kg”, “minutes. Another set of two dogs received test article after pre-treatment with diphenhydramine (1 mg/kg administered 30 minutes prior to start of test article infusion).” for “minutes.”, “biochemistry, hematology,” for “biochemistries, hematologies,”, “histamine levels.” for “histamine.”
# [5] = Plasma PK in Beagle dog after oral and IV administration; type: in vivo; parameters: Tmax: unit not given here
# Method: In dogs an PO dose of 40 mg/kg (efficacious oral dose range) gives peak levels of 2.1 μg/mL (4.6 μM). […] These PK data and extrapolated conclusion are in agreement with the CV safety study, where PK after 15 minute infusion was conducted. In general, the mean concentrations peaked at the 10-minute time point, post-initiation, for each 15-minute infusion of sulcardine sulfate at 10 and 30 mg/kg (efficacious dose against ventricular arrhythmia). The mean peak plasma concentrations were 1.8 (4.2 μM) and 11.2 μg/mL (24.6 μM), respectively (data not shown). These values were well below in the case of the lower dose to barely reaching some but not all atrial cell patch clamp IC50s on various ion channels, although still associated with significant drops in mean arterial pressure, tachycardia, QT interval prolongation and changes in ventricular contractility were observed.
substance,measurement,setting,value
sulcardine sulfate,Heart rate,[1]; 1 mg/kg,90.00 ± 12.58 bpm
same,Histamine Concentration,[1]; 1 mg/kg,93.95 ± 24.11 ng/mL
same,Mean blood pressure,[1]; 1 mg/kg,166.7 ± 10.99 mmHg
same,Heart rate,[1]; 3 mg/kg,110.00 ± 10.41 bpm
same,Histamine Concentration,[1]; 3 mg/kg,182.5 ± 46.11 ng/mL
same,Mean blood pressure,[1]; 3 mg/kg,170.7 ± 7.36 mmHg
same,Heart rate,[1]; 10 mg/kg,111.7 ± 17.64 bpm
same,Histamine Concentration,[1]; 10 mg/kg,252.6 ± 85.78 ng/mL
same,Mean blood pressure,[1]; 10 mg/kg,101.0 ± 28.45 mmHg
same,Heart rate,[1]; 30 mg/kg,111.7 + 6.01 bpm
same,Histamine Concentration,[1]; 30 mg/kg,465.9 ± 27.75 ng/mL
same,Mean blood pressure,[1]; 30 mg/kg,69.7 ± 14.7 mmHg
same,observations during intravenous administration over 10 minutes,[1]; with erythemitous flare of face and ears and urticaria (hives),dose-dependent decrease in arterial blood pressure
same,AUC,[2]; 8 mg/kg fast i.v push,4.750 ± 1.778
same,CLs,[2]; 8 mg/kg fast i.v push,1.850 ± 0.5911
same,K10,[2]; 8 mg/kg fast i.v push,0.7378 ± 0.2645 h⁻¹
same,K12,[2]; 8 mg/kg fast i.v push,1.982 ± 1.157 h⁻¹
same,K21,[2]; 8 mg/kg fast i.v push,0.5196 ± 0.3149 h⁻¹
same,T1/2α,[2]; 8 mg/kg fast i.v push,0.2898 ± 0.2041 h
same,T1/2β,[2]; 8 mg/kg fast i.v push,6.107 ± 1.537 h
same,V/F (c),[2]; 8 mg/kg fast i.v push,2.815 ± 1.714
same,AUC,[2]; 40 mg/kg po,19.57 ± 2.414
same,CLs,[2]; 40 mg/kg po,2.065 ± 0.2283
same,Cmax,[2]; 40 mg/kg po,2.121 ± 0.4025
same,K12,[2]; 40 mg/kg po,0.1806 ± 0.0817 h⁻¹
same,K21,[2]; 40 mg/kg po,0.1778 ± 0.1295 h⁻¹
same,T1/2Ka,[2]; 40 mg/kg po,0.5663 ± 0.1687 h
same,T1/2α,[2]; 40 mg/kg po,1.636 ± 0.6148 h
same,T1/2β,[2]; 40 mg/kg po,12.21 ± 3.412 h
same,V/F (c),[2]; 40 mg/kg po,12.08 ± 2.621
same,AUC,[2]; 80 mg/kg po,83.53 ± 21.27
same,CLs,[2]; 80 mg/kg po,1.013 ± 0.2956
same,Cmax,[2]; 80 mg/kg po,8.849 ± 1.789
same,K10,[2]; 80 mg/kg po,0.1166 ± 0.0731 h⁻¹
same,K12,[2]; 80 mg/kg po,-8.226 ± 16.60 h⁻¹
same,K21,[2]; 80 mg/kg po,10.10 ± 19.85 h⁻¹
same,T1/2Ka,[2]; 80 mg/kg po,0.3681 ± 0.2443 h
same,T1/2α,[2]; 80 mg/kg po,1.670 ± 1.068 h
same,T1/2β,[2]; 80 mg/kg po,8.631 ± 2.294 h
same,Tmax,[2]; 80 mg/kg po,1.407 ± 0.6461
same,V/F (c),[2]; 80 mg/kg po,16.60 ± 18.60
same,AUC,[2]; 160 mg/kg po,291.6 ± 29.13
same,CLs,[2]; 160 mg/kg po,0.5527 ± 0.0533
same,Cmax,[2]; 160 mg/kg po,19.10 ± 3.412
same,K10,[2]; 160 mg/kg po,0.0856 ± 0.0155 h⁻¹
same,K12,[2]; 160 mg/kg po,-0.0620 ± 0.1371 h⁻¹
same,K21,[2]; 160 mg/kg po,1.474 ± 1.562 h⁻¹
same,T1/2Ka,[2]; 160 mg/kg po,0.8257 ± 0.5284 h
same,T1/2α,[2]; 160 mg/kg po,1.758 ± 1.790 h
same,T1/2β,[2]; 160 mg/kg po,9.640 ± 1.532 h
same,Tmax,[2]; 160 mg/kg po,2.700 ± 1.001
same,V/F (c),[2]; 160 mg/kg po,6.528 ± 0.6551
same,Cmax read from PK curve,"[2]; dogs, IV 8 mg/kg",about 10 μg/mL
same,time after completion of infusion by which arterial blood pressure was not different from baseline or placebo,[3],≤ 50 min
same,mean arterial blood pressure compared to baseline values,"[3]; at fifteen, thirty, and forty-five minutes after completing a 10 minute infusion, P<0.05",significantly lower
same,mean arterial pressure initial increase,"[4]; 10 mg/kg, one animal out of two, maximum at 10 minutes post start of dosing",+66%
same,QTc prolongation,"[4]; 10 mg/kg, within 5 minutes of initiation",≤ 20 ms
same,maximum histamine plasma concentration,"[4]; 10 mg/kg, at 5 min and 10 min post-Rx respectively",1874 nM and 1919 nM
same,maximum histamine plasma concentration,[4]; 30 mg/kg,251 nM and 183 nM
same,QTc prolongation,"[4]; 30 mg/kg infusion, cumulative",approximately 35 msec
same,maximum histamine plasma concentration,[4]; 90 mg/kg,99 nM and 64 nM
same,mortality,"[4]; 90 mg/kg, final 15-minute infusion",all animals succumbed
same,QRS widening,"[4]; all dose levels (10, 30, 90 mg/kg)",QRS widening was also noted at all dose levels
same,K10,[5]; 40 mg/kg po,0.1748 ± 0.0306 h⁻¹
same,Tmax,[5]; 40 mg/kg po,1.508 ± 0.4160
same,peak levels,"[5]; dogs, PO 40 mg/kg, 40 mg/kg",2.1 μg/mL and 4.6 μM
